Test results from patent publication US7368477B2, “Benzofuranyl alkanamine derivatives and uses thereof” (Wyeth, priority 2005, dated 2008).
Read-outs that look alike come from different tables or passages of the source.

Columns and labels:
[1] = biological target: T1, human 5-hydroxytryptamine-2C (h5-HT2C) receptor (Homo sapiens, UniProt P28335); assay: [125I]DOI binding to membranes of CHO cells expressing the human 5-HT2C receptor
T1 construct: expressed in transfected cells; host or cells: CHO (Chinese Hamster Ovary) cells; membrane preparation
T1 sequence (P28335 33-458): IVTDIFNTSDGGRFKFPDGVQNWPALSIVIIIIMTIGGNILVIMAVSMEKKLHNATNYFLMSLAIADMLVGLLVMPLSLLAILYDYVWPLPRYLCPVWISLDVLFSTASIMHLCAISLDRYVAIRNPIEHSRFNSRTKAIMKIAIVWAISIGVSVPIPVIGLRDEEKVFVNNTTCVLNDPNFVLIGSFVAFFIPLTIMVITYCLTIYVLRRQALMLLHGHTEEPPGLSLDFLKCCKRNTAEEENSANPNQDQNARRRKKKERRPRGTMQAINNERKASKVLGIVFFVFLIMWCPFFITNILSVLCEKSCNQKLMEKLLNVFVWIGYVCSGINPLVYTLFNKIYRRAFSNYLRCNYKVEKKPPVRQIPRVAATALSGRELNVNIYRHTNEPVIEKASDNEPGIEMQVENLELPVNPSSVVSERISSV

human 5-HT2C receptor = biological target: T2, human 5-HT2C receptor (Homo sapiens, UniProt P28335); assay: Calcium mobilization (FLIPR) in CHO cells stably expressing the human 5-HT2C receptor; assay type: cell-based; conditions: for Emax: CHO, read-out: 5-HT2C Function EMax (%); for EC50: calcium mobilization, h5-HT2C CHO cells, read-out: 5-HT2C Function EC50
T2 sequence (P28335 33-458): T1 sequence (P28335 33-458)

[2] = read-out: 5-HT2C Binding Ki avg

Row | SMILES | Ki [1, 2] [nM] | Emax (human 5-HT2C receptor) [%] | EC50 (human 5-HT2C receptor) [nM] | melting point | Ki ([1]; reference compounds, [125I]DOI displacement, h5-HT2C CHO membranes, read-out: Ki (95% confidence interval)) [nM] | Kd ([1]; saturation binding with increasing concentrations of [125I]DOI, read-out: dissociation constant, KD) [nM]
1 | I.NCc1cc2cc(Cl)cc(-c3ccccc3)c2o1 [Compound 1, [(5-chloro-7-phenyl-1-benzofuran-2-yl)methyl]amine] | 10 to 100 | 70 | 200 to 2000 | > 225 °C | – | –
2 | NCc1cc2cc(Cl)cc(-c3ccccc3F)c2o1 [Compound 2, {[5-chloro-7-(2-fluorophenyl)-1-benzofuran-2-yl]methyl}amine] | 1 to 10 | 80 | 200 to 2000 | – | – | –
3 | NCc1cc2cc(Cl)cc(-c3ccccc3Cl)c2o1 [Compound 3, {[5-chloro-7-(2-chlorophenyl)-1-benzofuran-2-yl]methyl}amine] | – | 100 | < 10 | – | – | –
4 | Cc1ccccc1-c1cc(Cl)cc2cc(CN)oc12 [Compound 4, {[5-chloro-7-(2-methylphenyl)-1-benzofuran-2-yl]methyl}amine] | – | 90 | 10 to 200 | – | – | –
5 | COc1ccccc1-c1cc(Cl)cc2cc(CN)oc12 [Compound 5, {[5-chloro-7-(2-methoxyphenyl)-1-benzofuran-2-yl]methyl}amine] | 1 to 10 | 90 | 10 to 200 | – | – | –
6 | NCc1cc2cc(Cl)cc(-c3ccccc3C(F)(F)F)c2o1 [Compound 6, ({5-chloro-7-[2-(trifluoro methyl)phenyl]-1-benzofuran-2-yl}methyl)amine] | 10 to 100 | 90 | 200 to 2000 | 215 to 218 °C (dec.) | – | –
7 | NCc1cc2cc(F)cc(-c3c(Cl)cccc3Cl)c2o1 [Compound 7, {[7-(2,6-dichlorophenyl)-5-fluoro-1-benzofuran-2-yl]methyl}amine] | 0.01 to 1 | 100 | < 10 | – | – | –
8 | Cc1ccccc1-c1cc(F)cc2cc(CN)oc12 [Compound 8, {[5-fluoro-7-(2-methylphenyl)-1-benzofuran-2-yl]methyl}amine] | 1 to 10 | 90 | < 10 | – | – | –
9 | NCc1cc2cc(F)cc(-c3ccc(Cl)cc3Cl)c2o1 [Compound 9, {[7-(2,4-dichlorophenyl)-5-fluoro-1-benzofuran-2-yl]methyl}amine] | 0.01 to 1 | 90 | < 10 | – | – | –
10 | COc1ccccc1-c1cc(F)cc2cc(CN)oc12 [Compound 10, 1-[5-fluoro-7-(2-methoxyphenyl)-1-benzofuran-2-yl]methanamine] | 1 to 10 | 80 | 10 to 200 | 128 to 130 °C | – | –
11 | NCc1cc2cc(F)cc(-c3cc(Cl)ccc3Cl)c2o1 [Compound 11, 1-[7-(2,5-dichlorophenyl)-5-fluoro-1-benzofuran-2-yl]methanamine] | 0.01 to 1 | 70 | < 10 | 245 to 247 °C | – | –
12 | Cc1ccccc1-c1cccc2cc(CN)oc12 [Compound 12, 1-[7-(2-methylphenyl)-1-benzofuran-2-yl]methanamine] | 1 to 10 | 70 | < 10 | 222 to 224 °C | – | –
13 | Cc1cc(Cl)ccc1-c1cc(F)cc2cc(CN)oc12 [Compound 13, 1-[7-(4-chloro-2-methylphenyl)-5-fluoro-1-benzofuran-2-yl]methanamine] | 1 to 10 | 80 | 10 to 200 | 172 to 174 °C | – | –
14 | Cc1ccc(Cl)cc1-c1cc(F)cc2cc(CN)oc12 [Compound 14, 1-[7-(5-chloro-2-methylphenyl)-5-fluoro-1-benzofuran-2-yl]methanamine] | 1 to 10 | 80 | 10 to 200 | 208 to 210 °C | – | –
15 | NCc1cc2cccc(-c3c(Cl)cccc3Cl)c2o1 [Compound 15, 1-[7-(2,6-dichlorophenyl)-1-benzofuran-2-yl]methanamine] | 0.01 to 1 | 90 | < 10 | 260 to 262 °C | – | –
16 | NCc1cc2ccc(Cl)c(-c3ccccc3Cl)c2o1 [Compound 16, 1-[6-chloro-7-(2-chlorophenyl)-1-benzofuran-2-yl]methanamine] | 0.01 to 1 | 90 | < 10 | 208 to 210 °C | – | –
17 | NCc1cc2ccc(F)c(-c3ccccc3Cl)c2o1 [Compound 17, 1-[7-(2-chlorophenyl)-6-fluoro-1-benzofuran-2-yl]methanamine] | – | – | – | > 250 °C | – | –
18 | CSc1ccc2c(c1)C(N1CCN(C)CC1)Cc1ccccc1S2 (stereo not shown) [Methiothepin, reference compound] | – | – | – | – | 4.6 | –
19 | COc1cc(CC(C)N)c(OC)cc1I (stereo not shown) [[^125I] DOI, reference compound] | – | – | – | – | – | 0.4
